Measured values as given in article PMC4686834, “Autocrine selection of a GLP-1R G-protein biased agonist with potent antidiabetic effects” (Nature Communications, 2015).
*1 amine or outer side, *2 acyl side, *3 side chain or, on linkers, in order; H or OH if unused. Where a SMILES comes first, the peptide text is derived from it. Bridges are numbered along the chain shown (N, C = ends). [ ]: non-standard residue; d: D form. The star is where a group is joined. Leu(3R-OH,Nα-propionyl) = CCC(=O)N[C@H](C(=O)*)[C@H](O)C(C)C; X1 = CC(C)[C@@H](O[*:3])[C@H](N[*:1])C(=O)[*:2]; NMeT = CN[C@H](C(=O)O)[C@@H](C)O; dPhLac = O=C(O)[C@H](O)Cc1ccccc1; NMeA = CN[C@@H](C)C(=O)O; NMeDha = C=C(NC)C(=O)O

Experiments:
human GLP-1R [1] = test: Ligand bias, equiactive comparison with Ex4 as reference; assay type: cell-based
human GLP-1R [2] = target: T1, human GLP-1R (Homo sapiens, UniProt P43220); test: Intracellular calcium mobilization (Gαq), FLIPR, CHO cells expressing the human GLP-1R; assay type: cell-based; conditions: 1 μM FR900359 in loading medium; CHO-GLP-1R expressing cells
T1 construct: expressed in transfected cells
T1 sequence (P43220 24-463): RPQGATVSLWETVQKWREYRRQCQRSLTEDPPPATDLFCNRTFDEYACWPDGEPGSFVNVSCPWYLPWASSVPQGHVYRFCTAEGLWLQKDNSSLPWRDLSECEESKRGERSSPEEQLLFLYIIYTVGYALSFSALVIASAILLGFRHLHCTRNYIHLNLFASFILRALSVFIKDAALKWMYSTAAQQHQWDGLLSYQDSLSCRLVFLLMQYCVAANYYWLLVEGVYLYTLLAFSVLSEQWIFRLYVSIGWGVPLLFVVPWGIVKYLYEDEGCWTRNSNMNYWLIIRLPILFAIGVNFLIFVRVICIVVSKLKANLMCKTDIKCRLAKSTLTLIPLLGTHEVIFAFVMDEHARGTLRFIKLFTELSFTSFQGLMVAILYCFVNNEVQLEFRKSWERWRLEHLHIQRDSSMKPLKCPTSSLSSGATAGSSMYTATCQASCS
Description: The stable CHO cell line (generated in-house using CHO-K1 cell line purchased from ATCC) expressing a functional human GLP-1R was cultured in F12 medium (Gibco) supplemented with 10% fetal bovine serum and 500 μg ml^−1 geneticin.

`CC[C@H](C)[C@H](NC(=O)[C@H](Cc1ccccc1)NC(=O)[C@H](CCC(=O)O)NC(=O)[C@H](CCCCN)NC(=O)[C@H](C)NC(=O)[C@H](C)NC(=O)[C@H](CCC(N)=O)NC(=O)CNC(=O)[C@H](CCC(=O)O)NC(=O)[C@H](CC(C)C)NC(=O)[C@H](Cc1ccc(O)cc1)NC(=O)[C@H](CO)NC(=O)[C@H](CO)NC(=O)[C@@H](NC(=O)[C@H](CC(=O)O)NC(=O)[C@H](CO)NC(=O)[C@@H](NC(=O)[C@H](Cc1ccccc1)NC(=O)[C@@H](NC(=O)CNC(=O)[C@H](CCC(=O)O)NC(=O)[C@H](C)NC(=O)[C@@H](N)Cc1c[nH]cn1)[C@@H](C)O)[C@@H](C)O)C(C)C)C(=O)N[C@@H](C)C(=O)N[C@@H](Cc1c[nH]c2ccccc12)C(=O)N[C@@H](CC(C)C)C(=O)N[C@H](C(=O)N[C@@H](CCCCN)C(=O)NCC(=O)N[C@@H](CCCNC(=N)N)C(N)=O)C(C)C` [GLP-1, glucagon-like peptide-1] was tested, and the “Ligand bias (in words)” value (human GLP-1R [1]) was “did not demonstrate detectable bias”, the “Bias factor (β), Gq vs β-arrestin 1” value (human GLP-1R [1]; mean ± s.d.) was 0.16 ± 0.13 and the “Bias factor (β), Gq vs β-arrestin 2” value (human GLP-1R [1]; mean ± s.d.) was 0.2 ± 0.08. For the same compound, the “Bias factor (β), Gs vs β-arrestin 2” value (human GLP-1R [1]; mean ± s.d.) was -0.04 ± 0.11 and the “Bias factor (β), Gs vs β-arrestin 1” value (human GLP-1R [1]; mean ± s.d. of a typical experiment performed three times) was -0.08 ± 0.11.

In the case of `C=C1C(=O)N[C@@H](C)C(=O)N(C)[C@@H](C)C(=O)N[C@@H]([C@H](OC(=O)[C@@H](NC(=O)CC)[C@H](O)C(C)C)C(C)C)C(=O)N(C)[C@@H]([C@@H](C)OC)C(=O)O[C@H](C(C)C)[C@H](NC(C)=O)C(=O)O[C@H](Cc2ccccc2)C(=O)N1C` [FR900359] (Ac-[X1][dPhLac][NMeDha]A[NMeA][X1](Leu(3R-OH,Nα-propionyl))[NMeT](Me); ester 1-C), the “Inhibition of P5-induced increase in [Ca2+]i” value (human GLP-1R [2]) is reported as “inhibited”.
